Where a name gives a salt, the structure may show the parent alone. Non-standard residues stand in square brackets, D forms with d. Residues, ends and D or L forms follow the SMILES beside them. Phe(4-Cl) = N[C@@H](Cc1ccc(Cl)cc1)C(=O)O; dPhe(4-Cl) = N[C@H](Cc1ccc(Cl)cc1)C(=O)O; d2Nal = N[C@H](Cc1ccc2ccccc2c1)C(=O)O; d(hCit) = NC(=O)NCCCC[C@@H](N)C(=O)O; Lys(iPr) = CC(C)NCCCC[C@H](N)C(=O)O; d3Pal = N[C@H](Cc1cccnc1)C(=O)O
Legend:
[1] = Phase I study D-84812-Z012, single s.c. injection: pharmacokinetics of teverelix; type: in vivo, human; settings: between the 60 mg and 90 mg doses
[2] = compared with degarelix; cited from earlier work
[3] = Phase I study D-84812-Z012, single s.c. injection: safety and tolerability; type: in vivo, human; settings: doses of up to 90 mg, 32 healthy male volunteers
[4] = Phase I study EP-24332T-A004, repeated s.c. injections: safety and tolerability; type: in vivo, human; settings: 2 s.c. doses of 60 mg or 90 mg at 24 h or 48 h interval
Protocol: In a second Phase I study (EP-24332T-A004), a second injection was administered 24 h or 48 h after the first in order to increase and prolong the initial peak, as well as increase the teverelix level and consequently the number of subjects castrated. As the previous Phase I study had shown 10 mg and 30 mg to be insufficient to provide a long-term suppression, 2 doses of 60 mg or 90 mg (6 subjects per group) or placebo (4 subjects) were administered at a 24 h interval and 2 doses of 90 mg at a 48 h interval. […] No critical safety findings were reported. […] The protocol of the study included 6 subjects who received 90 mg Teverelix TFA on D1; D2; D3.

| dose proportionality [1] | Compound | local irritation at the administration site [2] | tolerability [3] | local reactions at the injection sites [4] | tolerability [4] |
| --- | --- | --- | --- | --- | --- |
| demonstrated | CC(=O)N[C@H](Cc1ccc2ccccc2c1)C(=O)N[C@H](Cc1ccc(Cl)cc1)C(=O)N[C@H](Cc1cccnc1)C(=O)N[C@@H](CO)C(=O)N[C@@H](Cc1ccc(O)cc1)C(=O)N[C@H](CCCCNC(N)=O)C(=O)N[C@@H](CC(C)C)C(=O)N[C@@H](CCCCNC(C)C)C(=O)N1CCC[C@H]1C(=O)N[C@H](C)C(N)=O [Teverelix TFA, teverelix trifluoroacetate] (Ac-[d2Nal][dPhe(4-Cl)][d3Pal]SY[d(hCit)]L[Lys(iPr)]P[dA]-NH2) | less local irritation at the administration site than degarelix | tolerated well | – | – |
| – | CC(=O)N[C@H](Cc1ccc2ccccc2c1)C(=O)N[C@@H](Cc1ccc(Cl)cc1)C(=O)N[C@H](Cc1cccnc1)C(=O)N[C@@H](CO)C(=O)N[C@H](Cc1ccc(O)cc1)C(=O)N[C@H](CCCCNC(N)=O)C(=O)N[C@@H](CC(C)C)C(=O)N[C@@H](CCCCNC(C)C)C(=O)N1CCC[C@H]1C(=O)N[C@H](C)C(N)=O [teverelix, Ac-D-Nal-D-pClPhe-D-Pal-Ser-Tyr-D-Hci-Leu-Lys(iPr)-Pro-D-Ala-NH2] (Ac-[d2Nal][Phe(4-Cl)][d3Pal]S[dY][d(hCit)]L[Lys(iPr)]P[dA]-NH2) | – | – | only mild local indurations | tolerated well |

Reference: patent US20200000872A1, “A COMPOSITION COMPRISING AT LEAST ONE GNRH ANTAGONIST” (ANTEV LIMITED, priority 2017, published 2020)
